Laboratory results published in the supplement of paper PMC6045584.
± gives the standard deviation of the averaged measurements.

Compound: C=CCNC1=C2C[C@@H](C)C[C@H](OC)[C@H](O)[C@@H](C)/C=C(\C)[C@H](OC(N)=O)[C@@H](OC)/C=C\C=C(/C)C(=O)NC(=CC1=O)C2=O [17-AAG]
Test: surviving fraction relative to DMSO-only wells; higher = less growth inhibition
Details: exposure time: 5 days
Procedure, shortened: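 Continuous five-day exposure to inhibitors at 0.5, 1, 5, 10, 50, 100, 500 and 1000 nM started 24 hours after log-phase tumour cell lines were seeded at 250–500 cells per well in 384-well plates. Luminescence was read after 10 minutes at room temperature. Viability is given as surviving fraction, meaning CellTiter-Glo luminescence normalised to the median of DMSO-only wells.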

Test System | surviving fraction (0.5 nM) | surviving fraction (1 nM) | surviving fraction (5 nM) | surviving fraction (10 nM) | surviving fraction (50 nM) | surviving fraction (100 nM) | surviving fraction (500 nM) | surviving fraction (1000 nM)
SNU475 LIVER | 0.864 ± 0.017 | 0.884 ± 0.013 | 0.792 ± 0.036 | 0.418 ± 0.062 | 0.259 ± 0.02 | 0.234 ± 0.0059 | 0.248 ± 0.013 | 0.23 ± 0.029
PCI30 HEADNECK | 0.915 ± 0.067 | 0.972 ± 0.059 | 1.01 ± 0.12 | 1.09 ± 0.029 | 0.302 ± 0.031 | 0.134 ± 0.019 | 0.0433 ± 0.0093 | 0.0393 ± 0.0015
ZR751 BREAST | 1.17 ± 0.2 | 1.04 ± 0.12 | 0.994 ± 0.1 | 0.618 ± 0.13 | 0.22 ± 0.022 | 0.228 ± 0.032 | 0.213 ± 0.013 | 0.207 ± 0.024
22RV1 PROSTATE | 0.906 ± 0.038 | 0.989 ± 0.043 | 0.975 ± 0.027 | 0.91 ± 0.069 | 0.687 ± 0.07 | 0.336 ± 0.047 | 0.134 ± 0.0046 | 0.0907 ± 0.011
HT1080 SOFT TISSUE | 0.969 ± 0.031 | 1 ± 0.061 | 1.08 ± 0.015 | 1.048 ± 0.01 | 0.389 ± 0.017 | 0.204 ± 0.028 | 0.148 ± 0.0085 | 0.146 ± 0.0015
SG28 HEADNECK | 0.93 ± 0.048 | 0.918 ± 0.069 | 0.86 ± 0.05 | 0.776 ± 0.064 | 0.551 ± 0.11 | 0.322 ± 0.016 | 0.0967 ± 0.014 | 0.0863 ± 0.0032
MG63 BONE | 0.886 ± 0.028 | 0.88 ± 0.012 | 0.976 ± 0.028 | 0.919 ± 0.017 | 0.957 ± 0.014 | 0.733 ± 0.021 | 0.258 ± 0.0081 | 0.173 ± 0.0036
NCIH441 LUNG | 0.906 ± 0.13 | 1.02 ± 0.04 | 0.982 ± 0.046 | 0.993 ± 0.074 | 0.609 ± 0.069 | 0.416 ± 0.033 | 0.3 ± 0.025 | 0.308 ± 0.018
COLO320DM LARGE INTESTINE | 1.04 ± 0.084 | 0.959 ± 0.094 | 1.05 ± 0.038 | 1.17 ± 0.075 | 1.26 ± 0.41 | 0.955 ± 0.16 | 0.505 ± 0.032 | 0.286 ± 0.048
HCC1954 BREAST | 0.387 ± 0.00071 | 0.292 ± 0.071 | 0.195 ± 0.011 | 0.131 ± 0.03 | 0.0668 ± 0.012 | 0.0498 ± 0.0053 | 0.0425 ± 0.0042 | 0.045 ± 0.0064
SIHA CERVIX | 1.01 ± 0.073 | 0.939 ± 0.033 | 0.969 ± 0.18 | 0.895 ± 0.032 | 0.581 ± 0.077 | 0.211 ± 0.012 | 0.171 ± 0.0082 | 0.18 ± 0.017
HELA CERVIX | 0.944 ± 0.039 | 0.921 ± 0.037 | 0.924 ± 0.045 | 0.906 ± 0.043 | 0.68 ± 0.092 | 0.482 ± 0.038 | 0.219 ± 0.015 | 0.0948 ± 0.0088
CAL72 BONE | 1.05 ± 0.064 | 1 ± 0.016 | 0.982 ± 0.016 | 1 ± 0.017 | 1.15 ± 0.032 | 0.953 ± 0.04 | 0.249 ± 0.015 | 0.234 ± 0.011
MDAMB468 BREAST | 0.901 ± 0.05 | 0.826 ± 0.03 | 0.95 ± 0.039 | 0.931 ± 0.04 | 0.92 ± 0.082 | 0.31 ± 0.022 | 0.219 ± 0.029 | 0.218 ± 0.021
LM7 BONE | 0.755 ± 0.098 | 0.728 ± 0.03 | 0.763 ± 0.026 | 0.722 ± 0.01 | 0.188 ± 0.0075 | 0.121 ± 0.0085 | 0.0937 ± 0.0021 | 0.0923 ± 0.0068
143B BONE | 0.985 ± 0.047 | 0.992 ± 0.063 | 1.02 ± 0.029 | 0.965 ± 0.021 | 0.651 ± 0.011 | 0.271 ± 0.0071 | 0.0855 ± 0.00071 | 0.0855 ± 0.00071
CADOES1 SOFT TISSUE | 0.884 ± 0.093 | 1.01 ± 0.07 | 1 ± 0.076 | 0.903 ± 0.023 | 0.876 ± 0.11 | 0.842 ± 0.1 | 0.454 ± 0.1 | 0.129 ± 0.022
NOS1 BONE | 0.804 ± 0.1 | 0.831 ± 0.081 | 0.759 ± 0.069 | 0.651 ± 0.063 | 0.379 ± 0.023 | 0.215 ± 0.027 | 0.0853 ± 0.0021 | 0.0827 ± 0.008
MDAMB231 BREAST | 0.95 ± 0.019 | 0.943 ± 0.03 | 0.994 ± 0.033 | 1.01 ± 0.022 | 0.534 ± 0.019 | 0.263 ± 0.0075 | 0.103 ± 0.0031 | 0.0973 ± 0.0038
HSSYII SYNOVIAL | 0.869 ± 0.049 | 0.812 ± 0.035 | 0.888 ± 0.045 | 0.868 ± 0.022 | 0.764 ± 0.039 | 0.519 ± 0.017 | 0.122 ± 0.0035 | 0.114 ± 0.0093
S68 BREAST | 0.8 ± 0.19 | 0.706 ± 0.12 | 0.126 ± 0.0072 | 0.0657 ± 0.0075 | 0.0677 ± 0.0091 | 0.064 ± 0.0044 | 0.057 ± 0.0079 | 0.0607 ± 0.0047
